Data from patent US20240182445A1 (ONO PHARMACEUTICAL CO., LTD., priority 2019, published 2024).
pIC50: −log10 of the molar value.

biological target: T1, human TREK-1 (Homo sapiens, UniProt O95069); experiment: TREK-1 Thallium (Tl+) flux assay, Method 1; type: cell-based; conditions: TREK-1 Thallium (Tl+) flux assay, Method 1
T1 construct: expressed in transfected cells
T1 sequence (O95069 1-426): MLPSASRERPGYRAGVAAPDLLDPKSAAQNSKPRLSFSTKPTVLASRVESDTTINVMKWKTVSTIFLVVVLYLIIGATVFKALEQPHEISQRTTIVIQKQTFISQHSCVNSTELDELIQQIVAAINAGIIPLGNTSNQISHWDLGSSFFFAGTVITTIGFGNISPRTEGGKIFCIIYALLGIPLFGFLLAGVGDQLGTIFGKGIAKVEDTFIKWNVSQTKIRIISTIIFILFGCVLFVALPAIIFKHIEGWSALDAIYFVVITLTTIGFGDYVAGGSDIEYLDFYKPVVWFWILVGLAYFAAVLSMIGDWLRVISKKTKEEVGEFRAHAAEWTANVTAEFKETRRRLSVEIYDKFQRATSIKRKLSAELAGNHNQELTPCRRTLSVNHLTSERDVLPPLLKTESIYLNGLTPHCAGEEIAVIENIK
Summary of the method: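 Readout: Thallos fluorescence ratio, taken 25 s post-thallium relative to the pre-thallium baseline average, then converted to % inhibition. Cells were CHO-K1 stably expressing human TREK-1, dye-loaded and exposed to test compound (vehicle 0.3% DMSO) for 10 min prior to thallium stimulation.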

Row | pIC50 | SMILES
1 | 5.36 | Cc1cc(OCc2ccccc2)ccc1NC(=O)c1c(Cl)cnn1CC1CN(C(=O)C(C)C)CCO1 (stereo not drawn) [Compound 420, N-(4-(benzyloxy)-2-methylphenyl)-4-chloro-1-((4-isobutyrylmorpholin-2-yl)methyl)-1H-pyrazole-5-carboxamide]
2 | 5.44 | CC(=O)N1CCC(n2ncc(Cl)c2C(=O)Nc2ncc(-c3ccc(OC(F)(F)F)cc3)cc2C)CC1 [Compound 414, 1-(1-acetylpiperidin-4-yl)-4-chloro-N-(3-methyl-5-(4-(trifluoromethoxy)phenyl)pyridin-2-yl)-1H-pyrazole-5-carboxamide]
3 | 5.13 | COc1ccc(-c2cnc(NC(=O)c3c(Cl)cnn3C3CCN(C(C)=O)CC3)c(C)c2)cc1Cl [Compound 434, 1-(1-acetylpiperidin-4-yl)-4-chloro-N-(5-(3-chloro-4-methoxyphenyl)-3-methylpyridin-2-yl)-1H-pyrazole-5-carboxamide]
4 | 5.85 | Cc1cc(-c2cnn(-c3ccc(F)cc3)c2)cnc1NC(=O)c1c(Cl)cnn1[C@H]1CCOC1 [Compound 395, (S)-4-chloro-N-(5-(1-(4-fluorophenyl)-1H-pyrazol-4-yl)-3-methylpyridin-2-yl)-1-(tetrahydrofuran-3-yl)-1H-pyrazole-5-carboxamide]

same assay, conditions: TREK-1 Thallium (Tl+) flux assay; no *^12 (Method 2) mark on these rows

Row | pIC50 | SMILES
5 | 6.04 | Cc1cc(C#Cc2ccc(F)cc2)cnc1NC(=O)c1c(Cl)cnn1C1CC2(CCN(C(=O)C3CC3)C2)C1 (single isomer, unassigned) [Compound 363, 4-chloro-1-[(2s,4r)-6-(cyclopropanecarbonyl)-6-azaspiro[3.4]octan-2-yl]-N-{5-[(4-fluorophenyl)ethynyl]-3-methylpyridin-2-yl}-1H-pyrazole-5-carboxamide or 4-chloro-1-[(2r,4s)-6-(cyclopropanecarbonyl)-6-azaspiro[3.4]octan-2-yl]-N-{5-[(4-fluorophenyl)ethynyl]-3-methylpyridin-2-yl}-1H-pyrazole-5-carboxamide]
6 | 6.04 | Cc1cc(C#Cc2ccccc2)cnc1NC(=O)c1c(Cl)nn(C)c1-c1ccc2c(cnn2C)c1 [Compound 364, 3-chloro-1-methyl-5-(1-methyl-1H-indazol-5-yl)-N-(3-methyl-5-(phenylethynyl)pyridin-2-yl)-1H-pyrazole-4-carboxamide]

Further lines, the molecule ahead of its results:

Row | SMILES | pIC50
7 | Cc1cc(C#Cc2ccc(F)cc2)cnc1NC(=O)c1c(Cl)cnn1CC1CCN(C(=O)C(C)C)CC1C (stereo not drawn) [Compound 284, 4-chloro-N-(5-((4-fluorophenyl)ethynyl)-3-methylpyridin-2-yl)-1-((1-isobutyryl-3-methylpiperidin-4-yl)methyl)-1H-pyrazole-5-carboxamide] | 6.31
8 | Cc1cc(C#Cc2cccc(F)c2)cnc1NC(=O)c1c(Cl)cnn1[C@H]1C[C@@H]2CN(C(=O)C(C)C)C[C@@H]2C1 [Compound 349, 4-chloro-N-{5-[(3-fluorophenyl)ethynyl]-3-methylpyridin-2-yl}-1-[(3aR,5s,6aS)-2-(2-methylpropanoyl)octahydrocyclopenta [c]pyrrol-5-yl]-1H-pyrazole-5-carboxamide] | 6.09
9 | Cc1cc(C#Cc2ccc(F)cc2)cnc1NC(=O)c1c(Cl)cnn1C1CCN(C(=O)C(C)C)C1 (stereo not drawn) [Compound 305, 4-chloro-N-(5-((4-fluorophenyl)ethynyl)-3-methylpyridin-2-yl)-1-(1-isobutyrylpyrrolidin-3-yl)-1H-pyrazole-5-carboxamide] | 6.24
10 | CC(=O)N1CCC(CCn2ncc(Cl)c2C(=O)Nc2ncc(C#Cc3cccs3)cc2F)CC1 [Compound 311, 1-(2-(1-acetylpiperidin-4-yl)ethyl)-4-chloro-N-(3-fluoro-5-(thiophen-2-ylethynyl)pyridin-2-yl)-1H-pyrazole-5-carboxamide] | 6.23
11 | CC(=O)N1CC[C@@H](n2ncc(Cl)c2C(=O)Nc2ncc(C#Cc3ccccc3)cc2C)C1 [Compound 202, (R)-1-(1-acetylpyrrolidin-3-yl)-4-chloro-N-(3-methyl-5-(phenylethynyl)pyridin-2-yl)-1H-pyrazole-5-carboxamide] | 6.51
12 | Cc1cc(C#Cc2ccccc2)cnc1NC(=O)c1c(Cl)cnn1CC1CCCOC1 (stereo not drawn) [Compound 280, 4-chloro-N-(3-methyl-5-(phenylethynyl)pyridin-2-yl)-1-((tetrahydro-2H-pyran-3-yl)methyl)-1H-pyrazole-5-carboxamide] | 6.31
13 | CC(C)(C)OC(=O)N1CCN(CCn2ncc(Cl)c2C(=O)Nc2ncc(C#Cc3ccccc3)cc2F)CC1 [Compound 257, tert-butyl 4-(2-(4-chloro-5-((3-fluoro-5-(phenylethynyl)pyridin-2-yl)carbamoyl)-1H-pyrazol-1-yl)ethyl)piperazine-1-carboxylate] | 6.38

same assay, conditions: TREK-1 Thallium (Tl+) flux assay; values without footnote *12 are Method 1

Row | pIC50 | SMILES
14 | 6.57 | CC(=O)N1CC[C@@H](Cn2ncc(Cl)c2C(=O)Nc2ncc(C#Cc3ccccc3)cc2F)[C@H](F)C1 [Compound 178, 1-(((3S,4S)-1-acetyl-3-fluoropiperidin-4-yl)methyl)-4-chloro-N-(3-fluoro-5-(phenylethynyl)pyridin-2-yl)-1H-pyrazole-5-carboxamide]
15 | 6.64 | Cc1cc(C#Cc2cccc(F)c2)cnc1NC(=O)c1c(Cl)cnn1C1CCN(C(=O)C2CC2)CC1 [Compound 143, 4-chloro-1-(1-(cyclopropanecarbonyl)piperidin-4-yl)-N-(5-((3-fluorophenyl)ethynyl)-3-methylpyridin-2-yl)-1H-pyrazole-5-carboxamide]
16 | 6.55 | Cc1cc(C#Cc2ccccc2)cnc1NC(=O)c1c(Cl)cnn1[C@H]1C[C@H](NC(=O)C(C)C)C1 [Compound 183, 4-chloro-1-(trans-3-isobutyramidocyclobutyl)-N-(3-methyl-5-(phenylethynyl)pyridin-2-yl)-1H-pyrazole-5-carboxamide]
17 | 7.05 | CC(=O)N1CCCC(n2ncc(Cl)c2C(=O)Nc2ncc(C#Cc3ccccc3)cc2F)CC1 (stereo not drawn) [Compound 26]
18 | 6.62 | CC(=O)N1CCC(Cn2ncc(Cl)c2C(=O)Nc2ncc(C#Cc3cccc(F)c3)cc2C)CC1 [Compound 150, 1-((1-acetylpiperidin-4-yl)methyl)-4-chloro-N-(5-((3-fluorophenyl)ethynyl)-3-methylpyridin-2-yl)-1H-pyrazole-5-carboxamide]
19 | 6.74 | O=C(Nc1ncc(C#Cc2cccs2)cc1F)c1c(Cl)cnn1C1CCN(C(=O)C2COCCO2)CC1 (stereo not drawn) [Compound 95, 1-(1-(1,4-dioxane-2-carbonyl)piperidin-4-yl)-4-chloro-N-(3-fluoro-5-(thiophen-2-ylethynyl)pyridin-2-yl)-1H-pyrazole-5-carboxamide]
20 | 6.82 | CC(=O)N[C@H]1C[C@@H](n2ncc(Cl)c2C(=O)Nc2ncc(C#Cc3ccccc3)cc2C)C1 [Compound 64, 1-(cis-3-acetamidocyclobutyl)-4-chloro-N-(3-methyl-5-(phenylethynyl)pyridin-2-yl)-1H-pyrazole-5-carboxamide]
21 | 7.00 | CC(=O)N1CCC(n2ncc(Cl)c2C(=O)Nc2ncc(C#Cc3ccccc3)cc2C)C(F)C1 (stereo not drawn) [Compound 29, 1-(1-acetyl-3-fluoropiperidin-4-yl)-4-chloro-N-(3-methyl-5-(phenylethynyl)pyridin-2-yl)-1H-pyrazole-5-carboxamide]
22 | 6.62 | CC(=O)N1CCC(CCn2ncc(Cl)c2C(=O)Nc2ncc(C#Cc3ccccc3)cc2C)CC1 [Compound 153, 1-(2-(1-acetylpiperidin-4-yl)ethyl)-4-chloro-N-(3-methyl-5-(phenylethynyl)pyridin-2-yl)-1H-pyrazole-5-carboxamide]
23 | 6.66 | O=C(Nc1ncc(C#Cc2cccs2)cc1F)c1c(Cl)cnn1C1CCN(C(=O)C2CC2)CC1 [Compound 139, 4-chloro-1-(1-(cyclopropanecarbonyl)piperidin-4-yl)-N-(3-fluoro-5-(thiophen-2-ylethynyl)pyridin-2-yl)-1H-pyrazole-5-carboxamide]
24 | 7.15 | CC(=O)N1CC[C@@H](n2ncc(Cl)c2C(=O)Nc2ncc(C#Cc3ccccc3)cc2F)[C@H](F)C1 [Compound 20, 1-((3R,4R)-1-acetyl-3-fluoropiperidin-4-yl)-4-chloro-N-(3-fluoro-5-(phenylethynyl)pyridin-2-yl)-1H-pyrazole-5-carboxamide]

same assay, conditions: read-out: Tl^+ Assay % inhibition at 30 uM (Minus value indicates activation of TREK-1); at 30 uM; CHO-K1 cells stably expressing human TREK-1; minus = activation

Row | inhibition at 30 µM [%] | SMILES
25 | -106 | O=C(Nc1ncc(C#Cc2cccs2)cc1F)c1nn(CCC2CCN(C(=O)C3COCCO3)CC2)cc1Cl (stereo not drawn) [Compound 448, 1-(2-(1-(1,4-dioxane-2-carbonyl)piperidin-4-yl)ethyl)-4-chloro-N-(3-fluoro-5-(thiophen-2-ylethynyl)pyridin-2-yl)-1H-pyrazole-3-carboxamide]
26 | -56 | Cn1ncc2c1CC(n1cc(Cl)c(C(=O)Nc3ncc(C#Cc4ccccc4)cc3F)n1)CC2=O (stereo not drawn) [Compound 453, 4-chloro-N-(3-fluoro-5-(phenylethynyl)pyridin-2-yl)-1-(1-methyl-4-oxo-4,5,6,7-tetrahydro-1H-indazol-6-yl)-1H-pyrazole-3-carboxamide]
27 | -94 | Cc1cc(C#Cc2cccc(F)c2)cnc1NC(=O)c1nn(CCC2CCN(C(=O)C3CC3)CC2)cc1Cl [Compound 450, 4-chloro-1-(2-(1-(cyclopropanecarbonyl)piperidin-4-yl)ethyl)-N-(5-((3-fluorophenyl)ethynyl)-3-methylpyridin-2-yl)-1H-pyrazole-3-carboxamide]
